Columns and labels:
Assay type in all cases: cell-based
[1] = tested on: HL-60 cells; test: MTT cytotoxicity assay, HL-60; details: Homo sapiens, HL-60, 72 h, means ± SEM
Excerpt: (§1) U-937, HL-60, MOLT-3, NALM-6, and SK-MEL-1 cells were from DSMZ (German Collection of Microorganisms and Cell Cultures, Braunschweig, Germany). U-937/Bcl-2 cells were kindly provided by Dr. Jacqueline Bréard (INSERM U749, Faculté de Pharmacie Paris-Sud, Châtenay-Malabry, France). The U-937 is a pro-monocytic, human promyelocytic leukemia cell line that was isolated from a histiocytic lymphoma. HL-60 is a human acute myeloid leukemia cell line. MOLT-3 is a human acute lymphoblastic leukemia cell line. NALM-6 is a human B cell precursor leukemia. SK-MEL-1 is a human melanoma cell line growing singly or in clumps (occasional giant, polynucleated cell) in suspension. Cells were cultured in RPMI 1640 medium containing 10% (v/v) heat-inactivated fetal bovine serum, 100 μg/mL streptomycin, and 100 U/mL penicillin, incubated at 37 °C in a humidified atmosphere containing 5% CO2 as described. The doubling times of the cell lines were 24 h in HL-60, 30 h in U-937, U-937/Bcl-2, 40 h in MOLT-3 and NALM-6, and several days in SK-MEL-1 cells. Human peripheral blood mononuclear cells (PBMC) were isolated from heparin-anticoagulated blood of healthy volunteers by centrifugation with Ficoll-Paque Plus (GE Healthcare Bio-Sciences AB, Uppsala, Sweden). PBMC were also stimulated with phytohemagglutinin (2 µg/mL) for 48 h before the experimental treatment. The trypan blue exclusion method was used for counting the cells by a hemocytometer with 95% viability in all the experiments. Compounds were dissolved in dimethyl sulfoxide (DMSO) and kept under dark conditions at 25 °C. […] The cytotoxicity of the synthetic compounds was evaluated by colorimetric 3-(4,5-dimethyl-2-thiazolyl-)-2,5-diphenyl-2H-tetrazolium bromide (MTT) assay as previously described. Briefly, cells (5000 per well) were incubated with increasing concentrations of compounds for 72 h into a 96-well plate. Then, the supernatants were removed and 0.5 mg/mL MTT was added and incubated for 4 h at 37 °C. Sodium dodecyl sulfate (10% w/v) in 0.05 M HCl was added to solubilize the reaction products and the absorbance was measured at 570 nm with a reference wavelength of […] using an ELISA reader (Bio-Rad, Hercules, CA, USA). The IC50 values (concentrations inducing a 50% inhibition of cell viability) were determined graphically for each experiment by a nonlinear regression using the curve fitting routine implemented within the software Prism 5.0 (GraphPad, La Jolla, CA, USA).

[2] = tested on: six human cancer cell lines; test: MTT cytotoxicity assay, all cell lines assayed (summary statements); details: Homo sapiens; range over the six cell lines, 72 h
Excerpt: U-937, HL-60, MOLT-3, NALM-6, and SK-MEL-1 cells were from DSMZ (German Collection of Microorganisms and Cell Cultures, Braunschweig, Germany). U-937/Bcl-2 cells were kindly provided by Dr. Jacqueline Bréard (INSERM U749, Faculté de Pharmacie Paris-Sud, Châtenay-Malabry, France). The U-937 is a pro-monocytic, human promyelocytic leukemia cell line that was isolated from a histiocytic lymphoma. HL-60 is a human acute myeloid leukemia cell line. MOLT-3 is a human acute lymphoblastic leukemia cell line. NALM-6 is a human B cell precursor leukemia. SK-MEL-1 is a human melanoma cell line growing singly or in clumps (occasional giant, polynucleated cell) in suspension. Cells were cultured in RPMI 1640 medium containing 10% (v/v) heat-inactivated fetal bovine serum, 100 μg/mL streptomycin, and 100 U/mL penicillin, incubated at 37 °C in a humidified atmosphere containing 5% CO2 as described. […] The cytotoxicity of the synthetic compounds was evaluated by colorimetric 3-(4,5-dimethyl-2-thiazolyl-)-2,5-diphenyl-2H-tetrazolium bromide (MTT) assay as previously described. […] Sodium dodecyl sulfate (10% w/v) in 0.05 M HCl was added to solubilize the reaction products and the absorbance was measured at 570 nm with a reference wavelength of […] using an ELISA reader (Bio-Rad, Hercules, CA, USA). […]

[3] = tested on: U-937 cells; test: MTT cytotoxicity assay, U-937; details: Homo sapiens, U-937, 72 h, means ± SEM
Excerpt: as §1

Q: Which IC50 [1] does the source give for `Cc1ccc(S(=O)(=O)NC(=Nc2ccc(/C=C/C(=O)c3c(O)cccc3OCc3ccccc3)cc2)N2CCN(C)CC2)cc1` [Compound 6f] here?
A: 1600 ± 1000 nM

Q: And the IC50 [2]?
A: 1500 to 4500 nM

Q: And the IC50 [3]?
A: 1600 ± 600 nM
